The data set is described as follows: logP determination by HPLC (EEC Directive 79/831 Annexe V. A8, gradient method). It is filed as physicochemical. Conditions: pH 2; read-out: log P (pH 2).
For the compound `COc1ccc(-c2nnnn2C(F)F)cc1C` [Example V-7], the chromatographic logP was found to be 2.51.

For the compound `CCc1nc(-c2ccc(OCc3ccccc3/C(=N\OC)C(=O)NC)c(C)c2)no1` [Example 4, N-methyl-2-[4-(5-ethyl-1,2,4-oxadiazol-3-yl)-2-methylphenoxy]methylphenylglyoxylamide O-methyl oxime], the chromatographic logP was found to be 3.24.

Take `C#CCn1nnc(-c2ccc(OC)c(C)c2)n1` [Example V-44]: the chromatographic logP is 2.75.

In the case of `COc1ccc(-c2nnn(C(F)F)n2)cc1C` [Example V-6], the chromatographic logP turned out to be 3.24.

Regarding `CCc1nc(-c2ccc(OCc3ccccc3/C(=N\OC)C(=O)OC)c(C)c2)no1` [Example 3, methyl 2-[4-(5-ethyl-1,2,4-oxadiazol-3-yl)-2-methylphenoxy]methylphenylglyoxylate O-methyl oxime], the chromatographic logP was 3.8.

Consider `Cc1cc(-c2nnn(C)n2)ccc1O` [Example III-1, 2-methyl-5-(3-methyl-4-hydroxyphenyl)tetrazole], for which the chromatographic logP was 1.45.

Take `Cc1cc(-c2nnn(C(F)F)n2)ccc1O` [Example III-7]: the chromatographic logP is 2.18.

Regarding `CO/N=C(/C(=O)OC)c1ccccc1COc1ccc(-c2nc(C(F)(F)F)ns2)cc1C` [Example 5, methyl 2-[4-(3-trifluoromethyl-1,2,4-thiadiazol-5-yl)-2-methylphenoxy]methylphenylglyoxylate O-methyl oxime], the chromatographic logP came out at 4.62.

On to `Cc1cc(-c2nnnn2C(F)F)ccc1O` [Example III-8], for which the chromatographic logP was determined as 1.75.

In the case of `C#CCn1nnc(-c2ccc(O)c(C)c2)n1` [Example III-5], the chromatographic logP was determined as 1.81.

Regarding `C#CCn1nnnc1-c1ccc(O)c(C)c1` [Example III-6], the chromatographic logP was 1.41.

As for `COc1ccc(-c2nnn(C(C)(C)C)n2)cc1C` [Example V-3], the chromatographic logP turned out to be 3.78.

`Cc1cc(-c2nc(C(F)(F)F)ns2)ccc1O` [Example III-3, 3-trifluoromethyl-5-(3-methyl-4-hydroxyphenyl)-1,2,4-thiadiazole]: the chromatographic logP was 3.1.

As to `Cc1cc(-c2nnnn2C)ccc1O` [1-methyl-5-(3-methyl-4-hydroxyphenyl)tetrazole], the chromatographic logP came to 1.04.

With `Cc1cc(-c2nc(C(F)(F)F)ns2)ccc1OCc1ccc(Cl)cc1` [Example V-9, 3-trifluoromethyl-5-[3-methyl-4-(4-chlorobenzyloxy)phenyl]-1,2,4-thiadiazole], the chromatographic logP stood at 5.78.

Turning to `COc1ccc(-c2nnn(C)n2)cc1C` [Example V-2, 2-methyl-5-(3-methyl-4-methoxyphenyl)tetrazole], the chromatographic logP came to 2.38.

For `Cc1cc(-c2nnn(C(C)(C)C)n2)ccc1O` [Example III-4], the chromatographic logP is 2.54.

In the case of `C#CCn1nnnc1-c1ccc(OC)c(C)c1` [Example V-5], the chromatographic logP was determined as 2.12.

Consider `CO/N=C(/C(=O)OC)c1ccccc1COc1ccc(-c2nnn(C)n2)cc1C` [Example 1, methyl 2-[4-(2-methyltetrazol-5-yl)-2-methylphenoxy]methylphenylglyoxylate O-methyl oxime], for which the chromatographic logP was 3.08.

Consider `CNC(=O)/C(=N/OC)c1ccccc1COc1ccc(-c2nc(C(F)(F)F)ns2)cc1C` [Example 6, N-methyl-2-[4-(3-trifluoromethyl-1,2,4-thiadiazol-5-yl)-2-methylphenoxy]methylphenylglyoxylamide O-methyl oxime], for which the chromatographic logP stood at 4.08.

In the case of `COc1ccc(-c2nn[nH]n2)cc1C` [Example V-1, 5-(3-methyl-4-methoxyphenyl)tetrazole], the chromatographic logP is 1.51.

For the compound `CCc1nc(-c2ccc(O)c(C)c2)no1` [Example III-2, 5-ethyl-3-(3-methyl-4-hydroxyphenyl)-1,2,4-oxadiazole], the chromatographic logP was determined as 2.08.

As to `COc1ccc(/C(N)=N/O)cc1C` [Example VII-I, 3-methyl-4-methoxybenzamideoxime], the chromatographic logP came out at 0.36.

Regarding `CCc1nc(-c2ccc(OC)c(C)c2)no1` [Example V-8], the chromatographic logP came to 3.19.

For the compound `CNC(=O)/C(=N/OC)c1ccccc1COc1ccc(-c2nnn(C)n2)cc1C` [Example 2, N-methyl-2-[4-(2-methyltetrazol-5-yl)-2-methylphenoxy]methylphenylglyoxylamide O-methyl oxime], the chromatographic logP was found to be 2.58.

Values taken from patent US20040157740A1, “Heterocyclyl phenyl benzyl ethers used as fungicides” (priority 2001, published 2004).
